From patent US11980596B2 (priority 2017, dated 2024)

Columns and labels:
[1] = system: subjects with MDD at imminent risk for suicide; format: in vivo, human; details: post dose
Procedure: Transient blood pressure increases peaked for the esketamine group at approximately 40 minutes post dose with the maximum mean increases (across all dosing days) in systolic BP being 8.7 in the placebo group and 16.7 in the esketamine 84 mg group. The maximum mean increases (across all dosing days) in diastolic BP were 7.6 in the placebo group and 11.9 in the esketamine 84 mg group. […] See, FIGS. 46 and 47.

patients with TRD = assay: Adverse reactions in SPRAVATO clinical trials (label); format: in vivo, human; details: up to 4 weeks after cessation of treatment
Procedure: SPRAVATO was evaluated for safety in 1709 patients diagnosed with treatment resistant depression (TRD) [see Clinical Studies (14.1, 14.2)] from five Phase 3 studies (3 short-term and 2 long-term studies) and one Phase 2 dose-ranging study. Of all SPRAVATO-treated patients in the completed Phase 3 studies, 479 (30%) received at least 6 months of treatment, and 178 (11%) received at least 12 months of treatment.
In short-term studies in adults<65 years old (Study 1 pooled with another 4-week study), the proportion of patients who discontinued treatment because of an adverse reaction was 4.6% in patients who received SPRAVATO plus oral AD compared to 1.4% for patients who received placebo nasal spray plus oral AD. For adults 65 years old, the proportions were 5.6% and 3.1%, respectively. In Study 2, a long-term maintenance study, the discontinuation rates because of an adverse reaction were similar for patients receiving SPRAVATO plus oral AD and placebo nasal spray plus oral AD in the maintenance phase, at 2.6% and 2.1%, respectively.
SPRAVATO can cause nausea and vomiting (Table 7). Most of these events occurred on the day of dosing and resolved the same day, with the median duration not exceeding 1 hour in most subjects across dosing sessions. […]

[2] = Pharmacokinetics of esketamine nasal spray, 14 Phase 1 studies (Example 10); details: young adult subjects
Procedure: The data herein was assembled from 14 Phase 1 studies; each Phase 1 study was performed similarly to the study outlined in Example 9 in which the PK of esketamine was assessed.

[3] = Pharmacokinetics of intranasal esketamine in healthy subjects (Example 9)
Procedure: Blood samples (4 mL each) for determination of esketamine and noresketamine plasma concentrations were collected into the appropriate collection tube (e.g., Vacutainer®) at timepoints 0.00, 0.12, 0.20, 0.37, 0.53, 0.67, 0.83, 1.00, 1.25, 1.50, 2.00, 3.00, 4.00, 6.00, 9.00, 12.00, 18.00, and 24.00 h. The total amount of blood to be drawn for clinical laboratory tests and PK evaluations is approximately 327 mL.
Plasma samples were analyzed for esketamine and noresketamine concentrations using the validated, specific and sensitive liquid chromatography coupled to tandem mass spectrometry (LC-MS/MS) achiral method of Example 8.
Serial PK blood samples (4 mL each) were collected for a 24-hour period from each subject (Periods 1, 2, and 3). […] Statistical Methods 1.6.4.1. Sample Size
The following key parameters of esketamine and noresketamine in plasma were calculated using noncompartmental methods and actual sampling times: Cmax, tmax, AUClast, AUC∞, t1/2,λ, and λz.

Protein binding = format: in vitro ADME
From the text: Protein binding of esketamine was approximately 43% to 45%.

adult subjects with TRD [4] = details: post dose
Procedure: Blood pressure and pulse/heart rate measurements were assessed supine with a completely automated device. Manual techniques were used only if an automated device is not available. Blood pressure and pulse/heart rate measurements were preceded by at least 5 minutes of rest in a quiet setting without distractions (e.g., television, cell phones).
Descriptive statistics of temperature, pulse/heart rate, respiratory rate, pulse oximetry, and blood pressure (systolic and diastolic) (supine) values and changes from baseline were summarized at each scheduled time point. The percentage of subjects with values beyond clinically important limits were summarized.

adult female rats = assay: Single-dose neuronal toxicity study (neuronal vacuolation), intranasal esketamine (label); details: rat, in vivo
[5] = system: transgenic (Tg.rasH2) mice; assay: 6-month study in transgenic (Tg.rasH2) mice; format: in vivo, mouse; details: once-daily subcutaneous up to 75 mg/kg/day (reduced to 40 mg/kg/day during week 17); 6 months
[6] = single dose; 72 mg
Procedure: This study includes a single dose and 14-day repeated dose neurotoxicity studies with intranasally administered esketamine in female rats 12 to 14 weeks of age. These studies were conducted to investigate whether single or repeated intranasal administrations of esketamine induced neurodegenerative changes in the rat brain. The study results were used to estimate an esketamine exposure-based safety margin compared with the maximum dose of esketamine administered intranasally to depressed adult patients in clinical trials.
The vehicle- and the 36 and 54 mg-dosed groups consisted of 24 animals per group, while the 72 mg-dosed and positive control groups involved 30 animals per group. Four satellite animals were added to the esketamine HCl-dosed groups of main study animals for toxicokinetic (TK) purposes. In these animals the plasma exposure to esketamine was measured on the day of dosing at various time points up to and including 24 hours after the first instillation.

adult subjects with TRD [7] = details: post dose; remark: listed apart in the source
Procedure: The CADSS is an instrument for the measurement of present-state dissociative symptoms, and was administered to assess treatment-emergent dissociative symptoms. The CADSS consists of 23 subjective items, divided into 3 components: Depersonalization (Items 3 to 7, 20, and 23), derealization (Items 1, 2, 8 to 13, 16 to 19, and 21) and amnesia (Items 14, 15, and 22). Participant's responses were coded on a 5-point scale (0=not at all through to 4=extremely).
The Clinician Administered Dissociative States Scale (CADSS) was measured prior to the start of each dose, at 40 minutes, and 1.5 hours postdose.

[8] = system: CYP2B6 and CYP3A4 and to a lesser extent CYP2C9 and CYP2C19; assay: Metabolism by cytochrome P450 enzymes; details: human
subjects with TRD = details: IND or OP/MA phases; among the 76 subjects
From the text: The efficacy and safety analyses are based on the full (IND) analysis set and the full (OP/MA) analysis set. The full (IND) analysis set is defined as all subjects who receive at least 1 dose of intranasal study medication or 1 dose of oral antidepressant in the open-label IND phase (for direct-entry and transferred-entry non-responder subjects). The full (OP/MA) analysis is defined as all subjects who receive at least 1 dose of intranasal study medication or 1 dose of oral antidepressant in the OP/MA phase. Safety variables include cognition function over time, treatment-emergent adverse events (TEAEs), including TEAEs of special interest, vital signs over time, Clinician-Administered Dissociative Symptom Scale (CADDS) over time, and Modified Observer's Assessment of Alertness/Sedation (MOAA/S) score≤3.

healthy subjects = assay: Cardiac electrophysiology (QTc) study; format: in vivo, human
Procedure: The effect of SPRAVATO (84 mg nasal spray and 0.8 mg/kg esketamine intravenously infused over 40 minutes) on the QTc interval was evaluated in a randomized, double-blind, placebo-, and positive-controlled (moxifloxacin 400 mg), 4-period, crossover study in 60 healthy subjects.

[9] = system: subjects with MDD at imminent risk for suicide; details: post dose
Procedure: The CADSS was measured prior to the start of each dose, at 40 minutes, 2 hours, and 4 hours postdose.

Compound: CN[C@]1(c2ccccc2Cl)CCCCC1=O [esketamine, (S)-2-(2-chlorophenyl)-2-(methylamino)cyclohexanone]
- Blood pressure returning to normal range by [1]: ≤ 2 h
- Withdrawal symptoms (patients with TRD): no withdrawal symptoms
- Tmax, range of median values ([2]; single dose esketamine nasal spray 28 mg, n = 64): 19.8 to 40.2 min
- Tmax, range of median values ([2]; single dose esketamine nasal spray 56 mg, n = 86): 30 to 46.2 min
- Tmax, range of median values ([2]; single dose esketamine nasal spray 84 mg, n = 167): 31.8 to 49.8 min
- Dose proportionality of mean plasma Cmax and AUC ([3]; 28-mg, 56-mg and 84-mg intranasal regimens): less than dose-proportional
- AUC (AUClast and AUC∞) variability ([3]; esketamine): 25.0% to 30.4
- Cmax variability (percent coefficient of variation) ([3]; esketamine, across the 3 treatment groups): 35.7% to 36.7
- fraction unbound (Protein binding): 0.55 to 0.57
- Blood pressure returned to normal range at (adult subjects with TRD [4]): 90 min
- Time of peak of transient blood pressure increases (adult subjects with TRD [4]): approximately 40 minutes
- Safety margin to clinical exposure at the MRHD of 84 mg/day, AUC (adult female rats): 1.8 times
- Safety margin to clinical exposure at the MRHD of 84 mg/day, Cmax (adult female rats): 4.5 times
- Incidence of tumors [5]: did not increase the incidence of tumors
- AUC-based safety margin compared with the maximum 84 mg clinical dose [6]: ~86 fold
- Cmax-based safety margin compared with the maximum 84 mg clinical dose [6]: approximately 60 fold
- Dissociative and perceptual change symptoms (CADSS) resolved by (adult subjects with TRD [7]): ≤ 1.5 h
- Metabolic pathway [8]: primarily metabolized to noresketamine metabolite via cytochrome P450 (CYP) enzymes CYP2B6 and CYP3A4
- Subjects with an AE leading to discontinuation of intranasal esketamine considered related to esketamine (subjects with TRD): 51 subjects
- Increase in heart rate (healthy subjects; 84 mg nasal spray and 0.8 mg/kg intravenously over 40 minutes): > 10 bpm
- QTc prolongation (healthy subjects; therapeutic dose): lack of clinically relevant QTc prolongation
- Dissociative and perceptual change symptoms (CADSS) resolved by [9]: ≤ 2 h
